Assay results as given in the PolyMetriX glass transition set.
± gives the standard deviation of the reports.

Row | SMILES | glass transition temperature [°C]
1 | *Nc1ccc(Cc2ccc(NC(=O)c3cc(C(*)=O)cc(N4C(=O)C5C6CCC(C6)C5C4=O)c3)cc2)cc1 (repeat unit) | 293.00
2 | *CC(*)(C)C(=O)Oc1ccc(C(=O)Oc2ccc(C)cc2)cc1 (repeat unit) | 98.00
3 | *c1ccc(Oc2cccc(Oc3ccc(N4C(=O)c5ccc(Oc6ccc(S(=O)(=O)c7ccc(Oc8ccc9c(c8)C(=O)N(*)C9=O)cc7)cc6)cc5C4=O)cc3)c2)cc1 (repeat unit) | 219.00
4 | *c1ccc(-c2cc(C(C)(C)C)c(Oc3ccc(N4C(=O)c5ccc(-c6ccc7c(c6)C(=O)N(*)C7=O)cc5C4=O)cc3)c(C(C)(C)C)c2)cc1 (repeat unit) | 381.50
5 | */C=C/CC(C*)(C(=O)OC12CC3CC(CC(C3)C1)C2)C(=O)OC12CC3CC(CC(C3)C1)C2 (repeat unit) | 34.00
6 | *CC(*)C(=O)OCCCCCCOc1ccc(C(=O)Oc2ccc(C#N)cc2)cc1 (repeat unit) | 19.50
7 | *c1ccc(Oc2ccc3ccccc3c2-c2c(Oc3ccc(N4C(=O)c5ccc(NC(=O)Nc6cccc7c(NC(=O)Nc8ccc9c(c8)C(=O)N(*)C9=O)cccc67)cc5C4=O)cc3)ccc3ccccc23)cc1 (repeat unit) | 297.00
8 | *CC(O*)c1ccco1 (repeat unit) | 12.50
9 | *c1ccc(Oc2ccc(Oc3ccc(-c4cnc5cc(-c6ccc7nc(*)cnc7c6)ccc5n4)cc3)cc2)cc1 (repeat unit) | 195.00
10 | *c1ccc(Oc2ccc(N3C(=O)c4ccc(-c5ccc6c(c5)C(=O)N(*)C6=O)cc4C3=O)cc2)cc1 (repeat unit) | 279.00
11 | *c1ccc(C(C#N)(C(=O)OC)C(*)(C#N)C(=O)OC)cc1 (repeat unit) | 108.00
12 | *NNC(=O)c1ccccc1C(=O)Nc1cccc(/C=C2\CCC/C(=C\c3cccc(NC(=O)c4ccccc4C(*)=O)c3)C2=O)c1 (repeat unit) | 195.00
13 | *c1cccc(Oc2cccc(Oc3cccc(N4C(=O)c5ccc(-c6ccc7c(c6)C(=O)N(*)C7=O)cc5C4=O)c3)c2)c1 (repeat unit) | 205.00 ± 3
14 | *Oc1ccc(CC(NC(=O)CCc2ccc(OC(=O)CCCCCCC(*)=O)cc2)C(=O)OCCCCCC)cc1 (repeat unit) | 27.00
15 | *CC(*)(C)c1nc(N(CCOCCOCCOC)CCOCCOCCOC)nc(N(CCOCCOCCOC)c2ccccc2)n1 (repeat unit) | -75.00
16 | *CCOC(=O)CCSCCC(=O)O* (repeat unit) | -43.00
17 | *C(=O)c1ccc2c(c1)C(=O)N(c1cc(-c3nc4ccccc4oc3=O)cc(N3C(=O)c4ccc(*)cc4C3=O)c1)C2=O (repeat unit) | 95.00
18 | *CCCO* (repeat unit) [Polyoxytrimethylene ] | -78 ± 3
19 | *CCOC(=O)Nc1ccc(C)c(NC(=O)OCCOc2cc([N+](=O)[O-])ccc2/N=N/c2cn(*)c3ccccc23)c1 (repeat unit) | 150.00
20 | */C=C/C1CC(*)C(C#N)(CCCC)C1 (repeat unit) | 87.00
21 | *c1c(C)cc(C(c2cc(C(F)(F)F)cc(C(F)(F)F)c2)c2cc(C)c(N3C(=O)c4ccc(Oc5ccc6c(c5)C(=O)N(*)C6=O)cc4C3=O)c(C)c2)cc1C (repeat unit) | 281.90
22 | *CC(*)(C)C(=O)OCCCc1ccc(/N=N/c2ccc(OC(F)(F)F)cc2)cc1 (repeat unit) | 211.50
23 | *c1ccc(-c2nc3ccc(-c4ccc5nc(*)c(-c6ccccc6)c(-c6ccccc6)c5c4)cc3c(-c3ccccc3)c2-c2ccccc2)cc1 (repeat unit) | 400.00
24 | *CC(*)C(=O)OCCCCCCCCCCCCOC(=O)c1ccc(OC(=O)c2ccc(C#N)cc2)cc1 (repeat unit) | 15.00

Row | SMILES | glass transition temperature [°C]
25 | *c1ccc(Oc2ccc(N3C(=O)c4cccc(Oc5ccc(Oc6cccc7c6C(=O)N(*)C7=O)cc5)c4C3=O)cc2)cc1 (repeat unit) | 254.00 ± 15
26 | *O[Si](c1ccccc1)(c1ccccc1)c1ccc(-c2ccc([Si](*)(c3ccccc3)c3ccccc3)cc2)cc1 (repeat unit) | 94.00
27 | *c1cccc(-n2c(=O)c3cc4c(=O)n(*)c(=O)c4cc3c2=O)c1 (repeat unit) | 430.00
28 | *c1ccc(Cc2ccc(N3C(=O)c4ccc(Sc5ccc6c(c5)C(=O)N(*)C6=O)cc4C3=O)c(C(C)(C)C)c2)cc1C(C)(C)C (repeat unit) | 300.50
29 | *Oc1ccc(C2(c3ccc(OC(*)=O)c(C)c3)CCCCC2)cc1C (repeat unit) | 137.50
30 | */C(=C(\C#N)c1ccc(C(=O)OC2CCN(*)CC2)cc1)c1ccc(OC)cc1 (repeat unit) | 183.00
31 | *CC(C)C(=O)N* (repeat unit) | 96.00
32 | *Oc1ccc(C(C)(C)c2ccc(Oc3ccc4c(=O)n5c6cc(Oc7ccc8c(c7)nc7c9ccc(*)c%10cccc(c(=O)n87)c%109)ccc6nc5c5cccc3c45)cc2)cc1 (repeat unit) | 334.00
33 | *Oc1ccc(S(=O)(=O)c2ccc(Oc3ccc(C4(c5ccc(*)cc5)CCCCCC4)cc3)cc2)cc1 (repeat unit) | 247.00
34 | *CC(*)(C)C(=O)OCCCCCCN1CCN(c2ccc(/N=N/c3ccc(C#N)cc3)cc2)CC1 (repeat unit) | 77.00
35 | *c1ccc(*)c(C(=O)c2ccc(F)cc2)c1 (repeat unit) | 194.00
36 | *C/C=C(\C)CS(*)(=O)=O (repeat unit) | 88.20
37 | *Oc1ccc(S(=O)(=O)c2ccc(Oc3ccc(C(C)(C)c4ccc(*)cc4)cc3[N+](=O)[O-])cc2)cc1 (repeat unit) | 190.00
38 | *c1ccc(Oc2ccc(N3C(=O)c4ccc([Si](C)(C)O[Si](C)(C)c5ccc6c(c5)C(=O)N(c5ccc(Oc7ccc(-c8nnc(*)o8)cc7)cc5)C6=O)cc4C3=O)cc2)cc1 (repeat unit) | 190.50
39 | *CC(*)CCCCCCCCCCCCCCCCCC (repeat unit) | -88.00
40 | *c1ccc(Oc2ccc(C(=O)c3ccc(Oc4ccc(N5C(=O)c6ccc(Oc7ccc8c(c7)C(=O)N(*)C8=O)cc6C5=O)cc4)cc3)cc2)cc1 (repeat unit) | 243.00
41 | *Nc1cccc(NC(=O)CCCCCCC(*)=O)c1 (repeat unit) | 115.50
42 | *OP(=O)(Oc1ccc(OC)cc1)Oc1ccc(S(=O)(=O)c2ccc(*)cc2)cc1 (repeat unit) | 81.00
43 | *C(=O)Oc1ccc(-c2ccc(OC(=O)c3ccc4c(c3)C(=O)N(c3ccc(-c5ccc(N6C(=O)c7ccc(*)cc7C6=O)cc5C)c(C)c3)C4=O)cc2C)c(C)c1 (repeat unit) | 177.00
44 | *CC(*)(C#N)C(=O)OCCCC (repeat unit) | 117.00
45 | *c1nc(-c2ccccc2)nc(N(CCCCN(*)c2ccccc2)c2ccccc2)n1 (repeat unit) | 94.00
46 | *Oc1ccc(-c2ccc(OC(=O)OC3C(C)(C)C(OC(*)=O)C3(C)C)cc2)cc1 (repeat unit) | 165.00
47 | *CCC(C)CCC(=O)O* (repeat unit) [Poly(oxycarbonyl-3-methylpentamethylene) ] | -53 ± 0.6
